The IC50 is the concentration needed to halve the response being measured. A low value points to greater potency. The term Ki denotes the equilibrium dissociation constant of an inhibitor or competing ligand from its target. Broadly, the EC50 is the concentration giving half of the maximal effect. Higher therefore signals weaker potency.

We go through three molecules from article PMC10253817, “Design, Pharmacological Characterization, and Molecular Docking of Minimalist Peptidomimetic Antagonists of α4β1 Integrin” (International Journal of Molecular Sciences, 2023).

The target in test [1] is T1, αMβ2 integrin (Homo sapiens, UniProt P05107+P11215).
T1 construct: HL60 cells, mainly expressing the leukocyte integrin αMβ2; host or cells: HL60 (PMA-treated)
T1 sequence (P05107 23-769, other chains not shown): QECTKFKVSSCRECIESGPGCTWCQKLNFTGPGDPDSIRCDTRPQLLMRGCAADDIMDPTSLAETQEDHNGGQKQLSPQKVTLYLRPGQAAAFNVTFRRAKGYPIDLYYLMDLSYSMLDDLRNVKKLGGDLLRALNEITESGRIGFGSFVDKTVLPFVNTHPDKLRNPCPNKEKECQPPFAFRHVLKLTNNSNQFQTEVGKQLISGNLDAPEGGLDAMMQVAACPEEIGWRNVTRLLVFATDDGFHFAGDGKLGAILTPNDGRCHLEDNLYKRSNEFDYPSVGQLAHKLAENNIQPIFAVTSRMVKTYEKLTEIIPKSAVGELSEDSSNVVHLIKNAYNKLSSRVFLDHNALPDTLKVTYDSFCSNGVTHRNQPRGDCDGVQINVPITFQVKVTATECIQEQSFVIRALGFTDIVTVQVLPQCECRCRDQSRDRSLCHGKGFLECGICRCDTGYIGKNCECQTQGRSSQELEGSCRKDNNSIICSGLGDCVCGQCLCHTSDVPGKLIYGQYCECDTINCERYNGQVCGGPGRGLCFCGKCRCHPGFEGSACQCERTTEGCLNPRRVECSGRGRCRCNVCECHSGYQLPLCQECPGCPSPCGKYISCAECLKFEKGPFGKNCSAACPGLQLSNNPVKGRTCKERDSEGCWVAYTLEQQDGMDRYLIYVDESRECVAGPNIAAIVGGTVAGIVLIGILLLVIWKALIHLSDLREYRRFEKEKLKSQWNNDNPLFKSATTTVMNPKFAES
In words: αMβ2 integrin-mediated HL60 cell adhesion to Fg. The class given is cell-based. Conditions: HL60 cell adhesion to Fg (10 μg/mL), mean ± SD; for IC50: antagonists. How it is done: To this purpose, the ability of the best peptidomimetics to modulate cell adhesion mediated by integrins other than α4β1 was evaluated in HL60 cells, mainly expressing the leukocyte integrin αMβ2, and on K562 cells, mainly expressing α5β1, which shares a β1 subunit with the heterodimer α4β1. […] In contrast, 13 was a moderate promoter of cell adhesion mediated by αMβ2 integrin, behaving as an agonist. Regarding α5β1 integrin, none of the peptidomimetics employed were able to modulate K562 cell adhesion, thus being shown to be completely ineffective toward α5β1 integrin. The reference compound DS-70 was ineffective toward both αMβ2 and α5β1 integrins under the same experimental conditions (Table 3).
The assays were performed as previously described. Briefly, regarding adhesion assays on Jurkat E6.1 or HL-60 cells, black 96-well plates (Corning Costar) were coated overnight at 4 °C with FN or Fg (10 μg/mL) or VCAM-1 (2 μg/mL) in order to investigate α4β1 integrin-mediated cell adhesion. To avoid any kind of unspecific binding, plates were incubated with 100 μL/well of blocking solution (1% BSA in HBSS) for 30 min at 37 °C. Cells were counted, stained with the CellTracker green CMFDA (12.5 μM, 30 min at 37 °C, Life Technologies Italia, Milan, Italy) and after three washes, were preincubated with increasing concentrations of new compounds (10^−10–10^−4 M) or with the vehicle (methanol) for 30 min at 37 °C.
Then, cells were plated (500,000/well) on coated wells and incubated for 30 min at 37 °C. Afterwards nonadherent cells were removed via washing with a blocking solution, and the remaining adhered cells were lysed with 0.5% Triton X-100 in PBS (30 min at 4 °C). Green fluorescence was measured (Ex485 nm/Em535 nm) using an EnSpire Multimode Plate Reader (PerkinElmer, Waltham, MA, USA).
In both types of adhesion assay, the number of adherent cells was determined via comparison with a standard curve made in the same plate. Experiments were carried out in quadruplicate and repeated at least three times. Data analysis and EC50 or IC50 values were calculated using GraphPad Prism 9.5.1 (GraphPad Software, San Diego, CA, USA).
Cell culture. Jurkat E6.1 (expressing both α4β1 and αLβ2 integrin), K562 (expressing α5β1 integrin) and HL60 (expressing α Mβ2 integrin) cell lines were purchased from ATCC (Rockville, MD, USA); these cells were routinely cultured in RPMI-1640 (Life Technologies) supplemented with 1% glutamine and 10% fetal bovine serum (FBS). Cells were grown at 37 °C under 5% CO 2 humidified atmosphere. […]

The target of test [2] is T2, α4β1 integrin (Homo sapiens, UniProt P05556+P13612).
T2 construct: Jurkat E6.1 cell line, which endogenously expresses α4β1 integrin; host or cells: Jurkat E6.1
T2 sequence (P13612 34-1032): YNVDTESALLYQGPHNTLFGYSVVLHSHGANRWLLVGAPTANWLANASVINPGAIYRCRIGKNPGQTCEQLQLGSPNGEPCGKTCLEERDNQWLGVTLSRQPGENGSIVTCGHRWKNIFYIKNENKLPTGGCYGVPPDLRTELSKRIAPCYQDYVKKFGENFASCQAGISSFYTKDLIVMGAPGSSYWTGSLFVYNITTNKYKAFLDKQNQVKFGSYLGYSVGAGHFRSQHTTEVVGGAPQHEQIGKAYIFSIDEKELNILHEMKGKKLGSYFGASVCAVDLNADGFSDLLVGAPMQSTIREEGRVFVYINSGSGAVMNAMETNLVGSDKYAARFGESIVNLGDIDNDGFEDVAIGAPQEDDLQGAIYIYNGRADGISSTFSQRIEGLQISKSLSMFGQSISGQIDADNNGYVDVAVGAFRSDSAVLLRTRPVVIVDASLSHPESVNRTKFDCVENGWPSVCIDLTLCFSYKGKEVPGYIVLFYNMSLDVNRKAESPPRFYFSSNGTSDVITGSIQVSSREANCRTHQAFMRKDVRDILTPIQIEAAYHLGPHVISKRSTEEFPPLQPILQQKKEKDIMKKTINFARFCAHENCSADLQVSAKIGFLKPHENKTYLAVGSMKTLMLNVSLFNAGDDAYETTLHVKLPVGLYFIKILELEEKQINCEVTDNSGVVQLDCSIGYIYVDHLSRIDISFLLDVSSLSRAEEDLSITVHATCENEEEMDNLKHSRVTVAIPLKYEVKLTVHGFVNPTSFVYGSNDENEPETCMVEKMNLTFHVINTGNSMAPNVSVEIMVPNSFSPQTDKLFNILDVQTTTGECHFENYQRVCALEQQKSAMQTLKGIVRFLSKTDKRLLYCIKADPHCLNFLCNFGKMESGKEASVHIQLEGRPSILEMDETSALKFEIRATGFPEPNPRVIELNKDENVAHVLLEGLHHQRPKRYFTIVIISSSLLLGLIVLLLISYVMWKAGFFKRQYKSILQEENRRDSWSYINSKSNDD
T2 sequence (P05556 21-798): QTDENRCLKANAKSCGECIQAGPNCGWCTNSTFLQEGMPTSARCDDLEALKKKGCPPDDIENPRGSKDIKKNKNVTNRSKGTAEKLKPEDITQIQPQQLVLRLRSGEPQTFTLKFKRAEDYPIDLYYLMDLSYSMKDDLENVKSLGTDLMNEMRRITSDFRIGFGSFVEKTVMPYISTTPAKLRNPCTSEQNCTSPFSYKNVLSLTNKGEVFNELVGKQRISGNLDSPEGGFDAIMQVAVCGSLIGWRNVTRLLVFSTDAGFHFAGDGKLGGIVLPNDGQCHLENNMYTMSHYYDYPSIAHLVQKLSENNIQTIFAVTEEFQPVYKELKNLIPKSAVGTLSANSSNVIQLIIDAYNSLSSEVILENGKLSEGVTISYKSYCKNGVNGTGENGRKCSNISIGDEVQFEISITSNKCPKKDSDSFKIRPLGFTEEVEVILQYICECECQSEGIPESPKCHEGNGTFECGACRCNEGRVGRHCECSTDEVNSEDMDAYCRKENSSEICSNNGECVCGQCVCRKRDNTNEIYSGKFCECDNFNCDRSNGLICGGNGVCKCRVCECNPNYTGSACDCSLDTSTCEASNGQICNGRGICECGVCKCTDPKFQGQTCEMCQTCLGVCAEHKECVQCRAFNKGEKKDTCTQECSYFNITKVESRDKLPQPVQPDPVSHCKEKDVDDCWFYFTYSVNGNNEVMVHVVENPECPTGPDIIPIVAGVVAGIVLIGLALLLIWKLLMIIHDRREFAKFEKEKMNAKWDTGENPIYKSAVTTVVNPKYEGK
In words: LDV-FITC competitive binding on intact Jurkat E6.1 cells. The conditions noted are these: intact Jurkat E6.1 cells vs. LDV-FITC; mean ± SD. The protocol: The assays were performed as previously described with the following modifications. Jurkat E6.1 cells were resuspended (50,000 cells/sample) in 0.1% BSA in a HEPES buffer (NaCl 110 mM; KCl 10 mM; Glucose 10 mM; MgCl2 1 mM; CaCl2 1.5 mM; HEPES 30 mM; pH 7.4) and pre-incubated with different concentrations (10^−11–10^−5 M) of compounds for 20–30 min at RT. Then, LDV-FITC (5 µM) was added to the cells, and they were incubated in the dark for an additional 30 min at RT. At the end of the incubation with LDV-FITC, cells were washed with 0.1% BSA in a HEPES buffer. The FITC fluorescence intensity was measured using an EnSpire Multimode Plate Reader (PerkinElmer, Waltham, MA, USA). The data were plotted as LDV-FITC specific bindings versus the concentration of the competitor, and the data were fitted to a one-site competition equation; the equilibrium dissociation constant Ki was calculated from the IC50 using the Cheng–Prusoff equation.

Test [3] concerns JNK. In words: Western blot, FN-induced JNK phosphorylation in Jurkat E6.1 cells. The class given is cell-based. The conditions noted are these: Jurkat E6.1 cells pre-treated with 10^−7, 10^−8, 10^−9 M, then FN (10 µg/mL) 30 min. The protocol:
(§1) To this purpose, Jurkat E6.1 cells were pre-treated with different concentrations (10^−7, 10^−8, 10^−9 M) of the compounds and then exposed to FN (10 µg/mL) for 30 min. […] In addition, the effects observed on intracellular signaling were concentration-dependent, except for compound 13 on AKT activation.
(§2) Western blot analysis was performed as previously described, with the following modifications. […] For integrin antagonists, JurkatE6.1 cells were subsequently incubated with FN (10 μg/mL) at 37 °C for 30 min. At the end of the incubation period, Jurkat E6.1 cells were lysed on ice using T-PER® (Tissue Protein Extraction Reagent, Life Technologies Italia, Milan, Italy), supplemented with a phosphatase inhibitor cocktail. Protein extracts were quantified using a BCA Protein Assay (Pierce, Rockford, IL, USA). The proteins from the cytoplasmatic extract were denatured at 95 °C for 3 min, then equal amounts of protein samples (30–50 μg) were loaded and separated via 12% SDS-PAGE. Proteins were transferred onto a nitrocellulose membrane (Biorad, Hercules, CA, USA), which was blocked with 5% nonfat milk in a Tris-buffered saline (10 mM Tris-HCl, pH 8, containing 150 mM NaCl) containing 0.1% Tween 20 for 1 h at room temperature. Membranes were stained overnight at 4 °C with anti-actin antibody (1:5000, Merck Life Science, Milan, Italy) or with anti-phospho-ERK1/2, anti-total ERK1/2, anti-phospho-AKT, anti-total-AKT, or anti-phospho-JNK antibodies (1:1000; Cell Signaling Technology, Danvers, MA, USA). The membranes were incubated with anti-rabbit peroxidase-conjugated secondary antibodies at a dilution of 1:8000. Blots were developed with a SuperSignal West Pico chemiluminescent substrate. Protocols for digital image acquisition and analysis have previously been described.
In general terms: A western blot detects proteins with antibodies after separation by electrophoresis.

In test [4] the test system is ERK1/2. Description: Western blot, FN-induced ERK1/2 phosphorylation in Jurkat E6.1 cells. The conditions noted are these: Jurkat E6.1 cells pre-treated with 10^−7, 10^−8, 10^−9 M, then FN (10 µg/mL) 30 min. The class given is cell-based. How it is done: as §1, §2

As to `CC(=O)N[C@@H](CNC(=O)Cc1ccc(NC(=O)Nc2ccccc2C)cc1)C(=O)NCC(=O)O` [compound 3], in test [1], the IC50 was determined as 76 nM. Also, the inhibitory constant (Ki) in test [2] was 1.3 ± 0.7 nM. For the same molecule, the “FN-induced JNK phosphorylation” value in test [3] is on record as “did not counteract”. The “FN-induced ERK1/2 phosphorylation” value in test [4] is reported as “significantly prevented”.
In the case of `CCCNC(=O)[C@@H](CC(=O)NCC(=O)O)NC(=O)Cc1ccc(NC(=O)Nc2ccccc2C)cc1` [compound 8], in test [1], the concentration for half-maximal inhibition (IC50) is above 5000 nM. The molecule also yielded an inhibition constant (Ki) in test [2] of 1.9 ± 0.8 nM. For the same molecule, the “FN-induced JNK phosphorylation” value in test [3] is listed as “able to significantly prevent”. The “FN-induced ERK1/2 phosphorylation” value in test [4] was “significantly prevented”.
Regarding `Cc1ccccc1NC(=O)Nc1ccc(CNC(=O)C[C@@H](C)NC(=O)CC(=O)O)cc1` [compound 13], a half-maximal response in test [1] (agonist = increased number of adherent cells) (EC50) required 285 nM. Further, the Ki in test [2] turned out to be 16.7 ± 5.2 nM. For the same molecule, the “FN-induced JNK phosphorylation” value in test [3] is “did not counteract”. In addition, the “FN-induced ERK1/2 phosphorylation” value in test [4] was “significantly prevented”.
